Test results taken from US6355692B2, “Method of inhibiting formation of infectious microorganisms” (Northeastern Ohio Universities College of Medicine, priority 1998, dated 2002).
In brackets after ≈: the same amount, converted by molar mass.

Legend:
Neisseria gonorrhea = assay: Growth inhibition on chocolate agar containing resveratrol; format: cell-based
Method: Stock solutions of the resveratrol, obtained from Sigma Chemical Co, St. Louis, Mo. were prepared in 100% ethanol. Different quantities of the stock solution where added to melted chocolate agar which was then poured into a petri dish and allowed to solidify. […] The final concentration of ethanol in the agar was 0.5%. Control plates containing chocolate agar and ethanol at a final concentration of 0.5% were also prepared. Neisseria gonorrhea was obtained from patients diagnosed with gonorrhea. The authenticity of the bacterium was confirmed utilizing standard microbiological techniques of identification. Cultures of the bacterial isolate were inoculated onto fresh plates and then 24 hours later, a suspension was made from isolated colonies. […] Thereafter, the samples were incubated at 37° C. with or without 5% CO2. All samples were visually examined for growth of the bacterium 24 hours later to determine the concentration of resveratol that inhibits growth by 50% (MIC50) as well as the concentration which inhibits any visible growth (MIC100)

Escherichia coli = assay: Inhibitory concentration on bacteria and yeast in vitro; format: cell-based
Candida albicans = assay: as above; format: cell-based
[1] = test system: Group A Beta Streptococcus; assay: as above; format: cell-based
Pseudomonas aeruginosa = assay: Inhibitory concentration on bacteria and yeast in vitro; format: cell-based
Staphylococcus aureus = assay: as above; format: cell-based
pseudorabies virus = assay: microbe, parasite or virus in culture; format: cell-based
Neisseria meningitidis = assay: Growth inhibition on chocolate agar containing resveratrol; format: cell-based
Method: Stock solutions of the resveratrol, obtained from Sigma Chemical Co, St. Louis, Mo. were prepared in 100% ethanol. Different quantities of the stock solution where added to melted chocolate agar which was then poured into a petri dish and allowed to solidify. […] The final concentration of ethanol in the agar was 0.5%. Control plates containing chocolate agar and ethanol at a final concentration of 0.5% were also prepared. A culture of Neisseria […] obtained from the American Type Culture Collection. Authenticity of the bacterium was confirmed utilizing standard microbiological techniques of identification. Cultures of the bacterial isolate were inoculated onto fresh plates and then 24 hours later, a suspension was made from isolated colonies. […] Thereafter, the samples were incubated at 37° C. with or without 5% CO2. All samples were visually examined for growth of the bacterium 24 hours later to determine the resveratrol concentration that inhibits growth by 50% (MIC50) and the resveratrol concentration which inhibits any visible growth (MIC100)

[2] = complete inhibition of bacterial growth after 24 hours
[3] = concentrations ranging from 1 μg/ml to 200 μg/ml of solution

## Oc1ccc(/C=C/c2cc(O)cc(O)c2)cc1 [resveratrol, 3,5,4′-trihdyroxystilbene]
Neisseria gonorrhea; Neisseria, 50% reduction in bacterial growth after 24 hours
  IC50: 25 µg/mL (≈ 110 µM)
Neisseria gonorrhea; [2]
  IC100: 75 µg/mL
Escherichia coli; Escherichia coli, 50% reduction in bacterial growth after 24 hours
  IC50: > 200 µg/mL
Escherichia coli; [2]
  IC100: >200 µg/mL
Escherichia coli; [3]
  growth inhibition: does not inhibit the growth
Candida albicans; Candida albicans, 50% reduction in bacterial growth after 24 hours
  IC50: > 200 µg/mL
Candida albicans; [2]
  IC100: >200 µg/mL
Candida albicans; [3]
  growth inhibition: does not inhibit the growth
[1]; Streptococcus, 50% reduction in bacterial growth after 24 hours
  IC50: > 200 µg/mL
[1]; [2]
  IC100: >200 µg/mL
[1]; [3]
  growth inhibition: does not inhibit the growth
Cultured cells
  toxicity to cultured cells: non-toxic to cells
Pseudomonas aeruginosa; Pseudomonas aeruginosa, 50% reduction in bacterial growth after 24 hours
  IC50: > 200 µg/mL
Pseudomonas aeruginosa; [2]
  IC100: >200 µg/mL
Pseudomonas aeruginosa; [3]
  growth inhibition: does not inhibit the growth
Staphylococcus aureus; Staphylococcus aureus, 50% reduction in bacterial growth after 24 hours
  IC50: > 200 µg/mL
Staphylococcus aureus; [2]
  IC100: >200 µg/mL
Staphylococcus aureus; [3]
  growth inhibition: does not inhibit the growth
Pseudorabies virus
  reversibility of effect on pseudorabies virus replication: reversible
Pseudorabies virus; Suid alphaherpesvirus 1, Vero, 24 h, read-out: inhibition of formation of infectious virus particles
  inhibition at 50 µg/mL: > 99%
Pseudorabies virus; continuously incubated with 50 μg/ml resveratrol, 72 hours
  infectious pseudorabies virus particles in cultures: virtually undetectable
Neisseria meningitidis; Neisseria meningitidis, 50% reduction in bacterial growth after 24 hours
  IC50: 100 µg/mL (≈ 438 µM)
Neisseria meningitidis; [2]
  IC100: 125 µg/mL
